pIC50: −log10 of the molar value. Counter-ions that a name gives are not always drawn.

In the assay the target is T1, α7-subtype of nicotinic receptors (Rattus norvegicus, UniProt Q05941).
T1 construct: Cerebral cortices from male Wistar rats (150-250 g) are homogenised; from tissue; host or cells: rat cerebral cortex membrane homogenate
The assay can be described thus: In vitro inhibition of 3H-α-bungarotoxine binding in rat brain. Conditions: rat cerebral cortex homogenate; 3H-α-bungarotoxine 2 nM; 2 hours at 37° C.

T1 sequence (Q05941 23-502): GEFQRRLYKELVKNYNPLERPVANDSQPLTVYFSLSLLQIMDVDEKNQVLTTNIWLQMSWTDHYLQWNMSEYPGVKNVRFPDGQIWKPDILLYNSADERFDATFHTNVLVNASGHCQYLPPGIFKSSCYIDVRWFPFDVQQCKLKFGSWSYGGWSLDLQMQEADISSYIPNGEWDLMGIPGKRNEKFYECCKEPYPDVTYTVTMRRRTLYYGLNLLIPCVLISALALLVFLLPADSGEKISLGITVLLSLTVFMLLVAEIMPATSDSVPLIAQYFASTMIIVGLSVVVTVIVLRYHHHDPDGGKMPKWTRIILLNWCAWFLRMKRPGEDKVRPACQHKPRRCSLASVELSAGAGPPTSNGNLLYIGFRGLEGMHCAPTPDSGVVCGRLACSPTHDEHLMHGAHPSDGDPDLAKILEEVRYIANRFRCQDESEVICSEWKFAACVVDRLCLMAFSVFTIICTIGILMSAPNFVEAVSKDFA

`O=C(Nc1ccc(-c2ccc(C(=O)NC3CN4CCC3CC4)o2)cc1)c1ccccc1` (racemic) [Compound 1, (±)5-(4-Benzoylamino-phenyl)-furan-2-carboxylic acid(1-aza-bicyclo[2.2.2]oct-3-yl)-amide hydrochloric acid salt] had a pIC50 of 7.10.

For the origin of these results see patent publication US7514450B2, “Azabicyclic aryl derivatives” (NeuroSearch A/S, priority 2004, dated 2009).
